Consider 5 compounds from patent US20180160684A1 (priority 2015, published 2018).

For the assay, the system named is tomato late blight. Type of assay: in vivo, Phytophthora infestans.

Where two headings read alike, the source gives them in different places.

For `CC1COC(Cn2cncn2)(c2ccc(Oc3ccc(Cl)cc3)cc2Cl)O1` (stereo not drawn) [Difenoconazole, difenoconazole], the Control value reads like this: (difenoconazole 12.5 ppm alone (valifenalate 0 ppm)) 13; (difenoconazole 25 ppm alone (valifenalate 0 ppm)) 13; (difenoconazole 50 ppm alone (valifenalate 0 ppm)) 21; (difenoconazole 100 ppm alone (valifenalate 0 ppm)) 25.
As to `Cc1cc(OC(C)C)ccc1C(=O)C(C)(C)NC(=O)c1sccc1C` [Isofetamid, isofetamid], the Control value (isofetamid 18.8 ppm alone (valifenalate 0 ppm)) was found to be 0; the Control value (isofetamid 37.5 ppm alone (valifenalate 0 ppm)) was 0; the Control value (isofetamid 75 ppm alone (valifenalate 0 ppm)) is given as 0; the Control value (isofetamid 150 ppm alone (valifenalate 0 ppm)) came to 4; the Control value (isofetamid 300 ppm alone (valifenalate 0 ppm)) was determined as 8.
Take `COc1cc(C)c(C(=O)c2c(OC)ncc(Cl)c2C)c(OC)c1OC` [Pyriofenone, pyriofenone]: the Control value stood at 0 (pyriofenone 12.5 ppm alone (valifenalate 0 ppm)), 0 (pyriofenone 25 ppm alone (valifenalate 0 ppm)), 0 (pyriofenone 50 ppm alone (valifenalate 0 ppm)) and 0 (pyriofenone 100 ppm alone (valifenalate 0 ppm)).
As for `CC(C)(C)C(O)(CCc1ccc(Cl)cc1)Cn1cncn1` (stereo not drawn) [Tebuconazole, tebuconazole], the Control value is given as 4 (tebuconazole 12.5 ppm alone (valifenalate 0 ppm)), 4 (tebuconazole 25 ppm alone (valifenalate 0 ppm)), 4 (tebuconazole 50 ppm alone (valifenalate 0 ppm)) and 8 (tebuconazole 100 ppm alone (valifenalate 0 ppm)).
On to `COC(=O)CC(NC(=O)[C@@H](NC(=O)OC(C)C)C(C)C)c1ccc(Cl)cc1` (stereo partly drawn) [Valifenalate, valifenalate], for which the Control value is 46 (valifenalate 1.2 ppm alone (difenoconazole 0 ppm), Table 4); 29 (valifenalate 1.2 ppm alone (isofetamid 0 ppm), Table 1); 13 (valifenalate 1.2 ppm alone (pyriofenone 0 ppm), Table 2); 54 (valifenalate 2.3 ppm alone (difenoconazole 0 ppm), Table 4); 42 (valifenalate 2.3 ppm alone (isofetamid 0 ppm), Table 1); 25 (valifenalate 2.3 ppm alone (pyriofenone 0 ppm), Table 2). Further, the Control value runs as follows: (valifenalate 2.3 ppm alone (tebuconazole 0 ppm), Table 3) 33; (valifenalate 4.7 ppm alone (difenoconazole 0 ppm), Table 4) 58; (valifenalate 4.7 ppm alone (isofetamid 0 ppm), Table 1) 54; (valifenalate 4.7 ppm alone (pyriofenone 0 ppm), Table 2) 50; (valifenalate 4.7 ppm alone (tebuconazole 0 ppm), Table 3) 46; (valifenalate 9.4 ppm alone (difenoconazole 0 ppm), Table 4) 75. The Control value is, setting by setting: (valifenalate 9.4 ppm alone (isofetamid 0 ppm), Table 1) 71; (valifenalate 9.4 ppm alone (pyriofenone 0 ppm), Table 2) 63; (valifenalate 9.4 ppm alone (tebuconazole 0 ppm), Table 3) 63; (valifenalate 18.8 ppm alone (isofetamid 0 ppm), Table 1) 75; (valifenalate 18.8 ppm alone (pyriofenone 0 ppm), Table 2) 79; (valifenalate 18.8 ppm alone (tebuconazole 0 ppm), Table 3) 67. The compound also yielded a Control value (valifenalate 37.5 ppm alone (tebuconazole 0 ppm), Table 3) of 72.
